Laboratory results as given in patent publication US9738634B2, “Heterocyclic amide compound and herbicide” (SYNGENTA PARTICIPATIONS AG, priority 2013, dated 2017).

How the values were obtained:
Format in all cases: in vivo
Settings in all cases: treatment dosage 320 g/ha
barnyard grass [1] = test: Test Example 2: weedkilling efficacy, growth period weed treatment in the submerged state; A: barnyard grass
Outline: (§1)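 Barnyard grass, bulrush and oval-leafed pondweed sown in alluvial soil under 4 cm flooding, greenhouse 25 to 30° C. At 1-2 leaf stage, water-diluted emulsion applied to the water surface at stated g/ha dosages; effects scored 3 weeks later.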

green foxtail [2] = test: Test Example 3: weedkilling efficacy through soil treatment; E: green foxtail
Outline: (§2)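 Crop and weed responses were judged three weeks after a uniform surface spray of the water-diluted emulsion at the given g/ha rate. Seeds sat beneath about 1.5 cm of sterilized diluvial soil, and boxes stood in a greenhouse at 25 to 30° C.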

chickweed [3] = test: Test Example 4: weedkilling efficacy by foliar treatment; N: chickweed
Outline: (§3)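 Seeds are spot-sown into sterilized diluvial soil and covered with about 1.5 cm of soil. After 14 days' greenhouse growth at 25 to 30° C, plants are sprayed on stems and leaves with diluted emulsion at the stated g/ha rate, then scored at 3 weeks.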

green foxtail [4] = test: Test Example 4: weedkilling efficacy by foliar treatment; E: green foxtail
Outline: as §3

soybean [5] = test: Test Example 3: soil treatment, effect on crop; d: soybean
Outline: as §2

barnyard grass [6] = test: Test Example 1: weedkilling efficacy, preemergent weed treatment in the submerged state; A: barnyard grass
Outline: (§4)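 Pots of alluvial soil flooded 4 cm deep, sown with barnyard grass, bulrush and oval-leafed pondweed and transplanted with 2.5-leaf rice. Emulsified compound applied to the water surface on sowing day at stated g/ha; greenhouse 25–30 °C, effects assessed 3 weeks after treatment.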

wild oat [7] = test: Test Example 3: weedkilling efficacy through soil treatment; G: wild oat
Outline: as §2

directly sown rice [8] = test: Test Example 3: soil treatment, effect on crop; b: directly sown rice
Outline: as §2

Indian mallow [9] = test: Test Example 4: weedkilling efficacy by foliar treatment; K: Indian mallow
Outline: as §3

common wind-grass [10] = test: Test Example 3: weedkilling efficacy through soil treatment; J: common wind-grass
Outline: as §2

catchweed [11] = test: Test Example 3: weedkilling efficacy through soil treatment; O: catchweed
Outline: as §2

oval-leafed pondweed [12] = test: Test Example 2: weedkilling efficacy, growth period weed treatment in the submerged state; C: oval-leafed pondweed
Outline: as §1

wheat [13] = test: Test Example 3: soil treatment, effect on crop; e: wheat
Outline: as §2

rapeseed [14] = test: Test Example 3: soil treatment, effect on crop; g: rapeseed
Outline: as §2

beet [15] = test: Test Example 4: foliar treatment, effect on crop; f: beet
Outline: as §3

corn [16] = test: Test Example 3: soil treatment, effect on crop; c: corn
Outline: as §2

Italian ryegrass [17] = test: Test Example 4: weedkilling efficacy by foliar treatment; I: Italian ryegrass
Outline: as §3

chickweed [18] = test: Test Example 3: weedkilling efficacy through soil treatment; N: chickweed
Outline: as §2

crabgrass [19] = test: Test Example 4: weedkilling efficacy by foliar treatment; D: crabgrass
Outline: as §3

fig-leafed goosefoot [20] = test: Test Example 4: weedkilling efficacy by foliar treatment; M: fig-leafed goosefoot
Outline: as §3

Indian mallow [21] = test: Test Example 3: weedkilling efficacy through soil treatment; K: Indian mallow
Outline: as §2

transplanted rice = test: Test Example 1: preemergent weed treatment in the submerged state, effect on crop; a: transplanted rice
Outline: as §4

oval-leafed pondweed [22] = test: Test Example 1: weedkilling efficacy, preemergent weed treatment in the submerged state; C: oval-leafed pondweed
Outline: as §4

wild oat [23] = test: Test Example 4: weedkilling efficacy by foliar treatment; G: wild oat
Outline: as §3

black-grass [24] = test: Test Example 3: weedkilling efficacy through soil treatment; H: black-grass
Outline: as §2

birds-eye speedwell [25] = test: Test Example 3: weedkilling efficacy through soil treatment; p: birds-eye speedwell
Outline: as §2

soybean [26] = test: Test Example 4: foliar treatment, effect on crop; d: soybean
Outline: as §3

wheat [27] = test: Test Example 4: foliar treatment, effect on crop; e: wheat
Outline: as §3

barnyard grass [28] = test: Test Example 3: weedkilling efficacy through soil treatment; F: barnyard grass
Outline: as §2

black-grass [29] = test: Test Example 4: weedkilling efficacy by foliar treatment; H: black-grass
Outline: as §3

barnyard grass [30] = test: Test Example 4: weedkilling efficacy by foliar treatment; F: barnyard grass
Outline: as §3

common wind-grass [31] = test: Test Example 4: weedkilling efficacy by foliar treatment; J: common wind-grass
Outline: as §3

crabgrass [32] = test: Test Example 3: weedkilling efficacy through soil treatment; D: crabgrass
Outline: as §2

catchweed [33] = test: Test Example 4: weedkilling efficacy by foliar treatment; O: catchweed
Outline: as §3

redroot pigweed [34] = test: Test Example 3: weedkilling efficacy through soil treatment; L: redroot pigweed
Outline: as §2

fig-leafed goosefoot [35] = test: Test Example 3: weedkilling efficacy through soil treatment; M: fig-leafed goosefoot
Outline: as §2

beet [36] = test: Test Example 3: soil treatment, effect on crop; f: beet
Outline: as §2

birds-eye speedwell [37] = test: Test Example 4: weedkilling efficacy by foliar treatment; p: birds-eye speedwell
Outline: as §3

bulrush [38] = test: Test Example 2: weedkilling efficacy, growth period weed treatment in the submerged state; B: bulrush
Outline: as §1

rapeseed [39] = test: Test Example 4: foliar treatment, effect on crop; g: rapeseed
Outline: as §3

Italian ryegrass [40] = test: Test Example 3: weedkilling efficacy through soil treatment; I: Italian ryegrass
Outline: as §2

corn [41] = test: Test Example 4: foliar treatment, effect on crop; c: corn
Outline: as §3

bulrush [42] = test: Test Example 1: weedkilling efficacy, preemergent weed treatment in the submerged state; B: bulrush
Outline: as §4

redroot pigweed [43] = test: Test Example 4: weedkilling efficacy by foliar treatment; L: redroot pigweed
Outline: as §3

directly sown rice [44] = test: Test Example 4: foliar treatment, effect on crop; b: directly sown rice
Outline: as §3

## CCc1cc(F)nc(NC(=O)C(C)(C)N2COC(C)=C(c3ccccc3)C2=O)c1 [B-2-39]
Barnyard grass [1]
  A (barnyard grass) weedkilling efficacy grade: 5 (weed kill ratio 90% or more, (practically complete withering))
Green foxtail [2]
  E (green foxtail) weedkilling efficacy grade: 5 (weed kill ratio 90% or more, (practically complete withering))
Chickweed [3]
  N (chickweed) weedkilling efficacy grade: 4 (weed kill ratio 70% or more, less than 90%)
Green foxtail [4]
  E (green foxtail) weedkilling efficacy grade: 5 (weed kill ratio 90% or more, (practically complete withering))
Soybean [5]
  d (soybean) effect on crop grade: 0 (weed kill ratio 5% or less (practically no effect))
Barnyard grass [6]
  A (barnyard grass) weedkilling efficacy grade: 5 (weed kill ratio 90% or more, (practically complete withering))
Wild oat [7]
  G (wild oat) weedkilling efficacy grade: 5 (weed kill ratio 90% or more, (practically complete withering))
Directly sown rice [8]
  b (directly sown rice) effect on crop grade: 4 (weed kill ratio 70% or more, less than 90%)
Indian mallow [9]
  K (Indian mallow) weedkilling efficacy grade: 4 (weed kill ratio 70% or more, less than 90%)
Common wind-grass [10]
  J (common wind-grass) weedkilling efficacy grade: 5 (weed kill ratio 90% or more, (practically complete withering))
Catchweed [11]
  O (catchweed) weedkilling efficacy grade: 4 (weed kill ratio 70% or more, less than 90%)
oval-leafed pondweed [12]
  C (oval-leafed pondweed) weedkilling efficacy grade: 5 (weed kill ratio 90% or more, (practically complete withering))
Wheat [13]
  e (wheat) effect on crop grade: 0 (weed kill ratio 5% or less (practically no effect))
Rapeseed [14]
  g (rapeseed) effect on crop grade: 4 (weed kill ratio 70% or more, less than 90%)
Beet [15]
  f (beet) effect on crop grade: 4 (weed kill ratio 70% or more, less than 90%)
Corn [16]
  c (corn) effect on crop grade: 0 (weed kill ratio 5% or less (practically no effect))
Italian ryegrass [17]
  I (Italian ryegrass) weedkilling efficacy grade: 5 (weed kill ratio 90% or more, (practically complete withering))
Chickweed [18]
  N (chickweed) weedkilling efficacy grade: 4 (weed kill ratio 70% or more, less than 90%)
Crabgrass [19]
  D (crabgrass) weedkilling efficacy grade: 5 (weed kill ratio 90% or more, (practically complete withering))
fig-leafed goosefoot [20]
  M (fig-leafed goosefoot) weedkilling efficacy grade: 5 (weed kill ratio 90% or more, (practically complete withering))
Indian mallow [21]
  K (Indian mallow) weedkilling efficacy grade: 2 (weed kill ratio 20% or more, less than 40%)
Transplanted rice
  a (transplanted rice) effect on crop grade: 1 (weed kill ratio 5% or more, less than 20%)
oval-leafed pondweed [22]
  C (oval-leafed pondweed) weedkilling efficacy grade: 5 (weed kill ratio 90% or more, (practically complete withering))
Wild oat [23]
  G (wild oat) weedkilling efficacy grade: 4 (weed kill ratio 70% or more, less than 90%)
black-grass [24]
  H (black-grass) weedkilling efficacy grade: 5 (weed kill ratio 90% or more, (practically complete withering))
birds-eye speedwell [25]
  P (birds-eye speedwell) weedkilling efficacy grade: 5 (weed kill ratio 90% or more, (practically complete withering))
Soybean [26]
  d (soybean) effect on crop grade: 4 (weed kill ratio 70% or more, less than 90%)
Wheat [27]
  e (wheat) effect on crop grade: 0 (weed kill ratio 5% or less (practically no effect))
Barnyard grass [28]
  F (barnyard grass) weedkilling efficacy grade: 5 (weed kill ratio 90% or more, (practically complete withering))
black-grass [29]
  H (black-grass) weedkilling efficacy grade: 5 (weed kill ratio 90% or more, (practically complete withering))
Barnyard grass [30]
  F (barnyard grass) weedkilling efficacy grade: 5 (weed kill ratio 90% or more, (practically complete withering))
Common wind-grass [31]
  J (common wind-grass) weedkilling efficacy grade: 5 (weed kill ratio 90% or more, (practically complete withering))
Crabgrass [32]
  D (crabgrass) weedkilling efficacy grade: 5 (weed kill ratio 90% or more, (practically complete withering))
Catchweed [33]
  O (catchweed) weedkilling efficacy grade: 4 (weed kill ratio 70% or more, less than 90%)
Redroot pigweed [34]
  L (redroot pigweed) weedkilling efficacy grade: 3 (weed kill ratio 40% or more, less than 70%)
fig-leafed goosefoot [35]
  M (fig-leafed goosefoot) weedkilling efficacy grade: 4 (weed kill ratio 70% or more, less than 90%)
Beet [36]
  f (beet) effect on crop grade: 3 (weed kill ratio 40% or more, less than 70%)
birds-eye speedwell [37]
  P (birds-eye speedwell) weedkilling efficacy grade: 5 (weed kill ratio 90% or more, (practically complete withering))
Bulrush [38]
  B (bulrush) weedkilling efficacy grade: 5 (weed kill ratio 90% or more, (practically complete withering))
Rapeseed [39]
  g (rapeseed) effect on crop grade: 4 (weed kill ratio 70% or more, less than 90%)
Italian ryegrass [40]
  I (Italian ryegrass) weedkilling efficacy grade: 5 (weed kill ratio 90% or more, (practically complete withering))
Corn [41]
  c (corn) effect on crop grade: 4 (weed kill ratio 70% or more, less than 90%)
Bulrush [42]
  B (bulrush) weedkilling efficacy grade: 5 (weed kill ratio 90% or more, (practically complete withering))
Redroot pigweed [43]
  L (redroot pigweed) weedkilling efficacy grade: 3 (weed kill ratio 40% or more, less than 70%)
Directly sown rice [44]
  b (directly sown rice) effect on crop grade: 4 (weed kill ratio 70% or more, less than 90%)
